One may read the pIC50 as −log10 of the IC50, conventionally taken in molar units.

We go through ten compounds from ChEMBL document CHEMBL4261572, “Design, synthesis and biological evaluation of tacrine-1,2,3-triazole derivatives as potent cholinesterase inhibitors” (Medchemcomm, 2018).

Test [1] concerns the target Acetylcholinesterase (Electrophorus electricus, UniProt O42275). The experiment in a line: Inhibition of electric eel AChE after 15 mins by DTNB reagent based assay.
Test [2] has as its target Cholinesterase (Equus caballus, UniProt P81908). The experiment in a line: Inhibition of horse serum BChE after 15 mins by DTNB reagent based assay.
Test [3] in a line: Selectivity ratio of compound effect for inhibition of horse serum BChE to compound effect for inhibition of electric eel AChE.
Test [4] deals with T1, Acetylcholinesterase (Rattus norvegicus, UniProt P37136).
T1 sequence (P37136 whole entry): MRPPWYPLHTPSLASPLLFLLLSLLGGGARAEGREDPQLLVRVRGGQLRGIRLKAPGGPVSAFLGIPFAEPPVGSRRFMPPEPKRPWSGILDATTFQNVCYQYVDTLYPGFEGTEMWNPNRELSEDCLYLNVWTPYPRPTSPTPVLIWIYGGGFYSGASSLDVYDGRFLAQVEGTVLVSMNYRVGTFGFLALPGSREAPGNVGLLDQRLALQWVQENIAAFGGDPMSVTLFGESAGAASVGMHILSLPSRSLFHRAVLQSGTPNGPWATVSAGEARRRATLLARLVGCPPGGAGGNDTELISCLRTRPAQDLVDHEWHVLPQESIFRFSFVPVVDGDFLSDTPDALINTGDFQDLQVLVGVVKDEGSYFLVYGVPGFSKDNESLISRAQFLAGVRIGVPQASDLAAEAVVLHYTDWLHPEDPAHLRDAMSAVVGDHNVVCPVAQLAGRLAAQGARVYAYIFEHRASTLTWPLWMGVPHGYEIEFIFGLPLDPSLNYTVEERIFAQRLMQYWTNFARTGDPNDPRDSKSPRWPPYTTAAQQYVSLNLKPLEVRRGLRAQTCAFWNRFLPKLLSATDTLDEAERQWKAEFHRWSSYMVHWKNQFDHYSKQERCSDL
The experiment in a line: Inhibition of rat brain AChE.

Test [5] deals with Acetylcholinesterase (Homo sapiens, UniProt P22303). Briefly: Inhibition of AChE (unknown origin).
Test [6] addresses Cholinesterase (Homo sapiens, UniProt P06276). Briefly: Inhibition of BChE (unknown origin).
For another test, the target named is Butyrylcholinesterase (Rattus norvegicus, UniProt Q9JKC1). The experiment in a line: Inhibition of rat serum BChE using butyrylthiocholine iodide as substrate measured after 8 mins in presence of AChE inhibitor BW284c51 by Ellman's method. For orientation: Ellman's reagent forms a yellow product with free thiols.
The target in test [7] is T1, Acetylcholinesterase. The experiment in a line: Inhibition of rat brain AChE using acetylthiocholine iodide as substrate measured after 8 mins in presence of BChE inhibitor ethopropazine by Ellman's method.

Structures are written as SMILES. pIC50: −log10 of the molar value.

Acetylcholinesterase (Electrophorus electricus, UniProt O42275), sequence (O42275 whole entry): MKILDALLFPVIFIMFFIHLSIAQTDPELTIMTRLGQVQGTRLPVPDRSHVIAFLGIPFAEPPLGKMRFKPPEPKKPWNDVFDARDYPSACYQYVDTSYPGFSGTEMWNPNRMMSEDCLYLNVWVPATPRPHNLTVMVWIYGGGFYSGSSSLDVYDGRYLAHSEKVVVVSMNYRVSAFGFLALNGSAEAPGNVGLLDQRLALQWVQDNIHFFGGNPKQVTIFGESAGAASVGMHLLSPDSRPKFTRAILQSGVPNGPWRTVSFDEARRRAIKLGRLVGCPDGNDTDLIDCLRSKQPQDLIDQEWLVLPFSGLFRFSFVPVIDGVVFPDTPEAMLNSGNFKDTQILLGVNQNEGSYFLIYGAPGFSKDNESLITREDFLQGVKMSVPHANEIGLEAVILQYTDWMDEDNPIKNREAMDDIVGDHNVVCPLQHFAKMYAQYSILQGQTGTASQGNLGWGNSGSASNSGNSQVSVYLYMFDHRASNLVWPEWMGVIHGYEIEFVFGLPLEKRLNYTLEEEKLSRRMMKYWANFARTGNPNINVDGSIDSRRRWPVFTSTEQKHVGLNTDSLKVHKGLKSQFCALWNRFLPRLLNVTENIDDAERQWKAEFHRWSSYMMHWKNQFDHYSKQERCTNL
Cholinesterase (Equus caballus, UniProt P81908), sequence (P81908 whole entry): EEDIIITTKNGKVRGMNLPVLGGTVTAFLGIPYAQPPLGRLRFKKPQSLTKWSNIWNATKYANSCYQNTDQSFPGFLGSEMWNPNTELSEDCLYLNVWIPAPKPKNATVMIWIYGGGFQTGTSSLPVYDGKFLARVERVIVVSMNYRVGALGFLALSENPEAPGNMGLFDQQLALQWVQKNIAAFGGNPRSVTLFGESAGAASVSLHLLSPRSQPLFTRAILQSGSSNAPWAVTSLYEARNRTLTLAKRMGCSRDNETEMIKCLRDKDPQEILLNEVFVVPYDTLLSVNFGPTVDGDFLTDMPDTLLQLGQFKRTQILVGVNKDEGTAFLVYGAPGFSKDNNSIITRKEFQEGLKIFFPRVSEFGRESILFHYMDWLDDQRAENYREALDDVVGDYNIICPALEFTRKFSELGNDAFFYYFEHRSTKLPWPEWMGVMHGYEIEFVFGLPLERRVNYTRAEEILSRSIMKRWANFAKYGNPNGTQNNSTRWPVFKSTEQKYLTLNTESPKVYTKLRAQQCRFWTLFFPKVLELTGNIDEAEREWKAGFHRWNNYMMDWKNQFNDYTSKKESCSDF
Acetylcholinesterase (Homo sapiens, UniProt P22303), sequence (P22303 whole entry): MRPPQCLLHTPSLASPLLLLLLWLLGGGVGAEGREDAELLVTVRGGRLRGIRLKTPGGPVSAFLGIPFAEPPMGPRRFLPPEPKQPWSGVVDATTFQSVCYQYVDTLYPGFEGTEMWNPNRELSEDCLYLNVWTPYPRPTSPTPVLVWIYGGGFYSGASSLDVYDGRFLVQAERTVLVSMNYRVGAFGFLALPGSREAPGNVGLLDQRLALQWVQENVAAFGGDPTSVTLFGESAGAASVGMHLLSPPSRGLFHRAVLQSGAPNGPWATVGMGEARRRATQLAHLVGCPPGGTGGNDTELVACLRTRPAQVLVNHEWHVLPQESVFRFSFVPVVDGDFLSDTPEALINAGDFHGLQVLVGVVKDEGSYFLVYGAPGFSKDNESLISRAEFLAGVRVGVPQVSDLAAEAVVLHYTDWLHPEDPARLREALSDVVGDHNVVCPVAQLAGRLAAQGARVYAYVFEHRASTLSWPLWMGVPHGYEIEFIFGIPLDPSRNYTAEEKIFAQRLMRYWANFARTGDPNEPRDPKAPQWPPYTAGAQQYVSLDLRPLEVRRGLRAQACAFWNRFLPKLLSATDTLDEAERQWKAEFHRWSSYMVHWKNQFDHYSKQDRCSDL
Butyrylcholinesterase, sequence (Q9JKC1 whole entry): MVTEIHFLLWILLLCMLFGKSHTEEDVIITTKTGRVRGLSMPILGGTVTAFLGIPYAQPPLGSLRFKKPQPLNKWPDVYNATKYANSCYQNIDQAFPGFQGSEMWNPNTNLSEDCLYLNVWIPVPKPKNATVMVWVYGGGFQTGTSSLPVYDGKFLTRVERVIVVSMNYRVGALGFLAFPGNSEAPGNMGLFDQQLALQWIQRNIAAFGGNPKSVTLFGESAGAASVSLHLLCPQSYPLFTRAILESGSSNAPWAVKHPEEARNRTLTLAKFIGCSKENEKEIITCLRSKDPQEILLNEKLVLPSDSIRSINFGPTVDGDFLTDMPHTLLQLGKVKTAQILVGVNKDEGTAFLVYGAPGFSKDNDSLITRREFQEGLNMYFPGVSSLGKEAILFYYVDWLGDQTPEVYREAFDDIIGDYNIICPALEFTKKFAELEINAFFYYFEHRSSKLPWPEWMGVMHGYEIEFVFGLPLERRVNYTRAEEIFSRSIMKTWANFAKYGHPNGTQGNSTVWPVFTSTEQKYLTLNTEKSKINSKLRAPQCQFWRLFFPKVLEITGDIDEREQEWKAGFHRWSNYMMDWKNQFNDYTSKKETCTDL
Cholinesterase (Homo sapiens, UniProt P06276), sequence (P06276 whole entry): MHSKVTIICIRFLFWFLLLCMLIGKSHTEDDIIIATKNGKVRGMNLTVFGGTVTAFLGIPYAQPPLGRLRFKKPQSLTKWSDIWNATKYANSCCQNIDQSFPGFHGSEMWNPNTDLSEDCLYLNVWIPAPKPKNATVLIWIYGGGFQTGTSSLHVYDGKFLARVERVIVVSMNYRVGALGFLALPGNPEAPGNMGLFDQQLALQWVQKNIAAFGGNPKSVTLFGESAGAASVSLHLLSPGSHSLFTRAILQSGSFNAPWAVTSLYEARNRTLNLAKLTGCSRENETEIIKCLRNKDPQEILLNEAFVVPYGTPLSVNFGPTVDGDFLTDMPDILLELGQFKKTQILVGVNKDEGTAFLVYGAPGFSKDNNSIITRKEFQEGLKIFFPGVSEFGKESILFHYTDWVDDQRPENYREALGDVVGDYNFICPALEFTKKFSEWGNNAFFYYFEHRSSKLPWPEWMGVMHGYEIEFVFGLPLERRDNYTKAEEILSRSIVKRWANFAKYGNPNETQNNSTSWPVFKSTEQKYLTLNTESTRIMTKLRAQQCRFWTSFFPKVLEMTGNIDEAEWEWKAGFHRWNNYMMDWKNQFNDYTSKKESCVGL

Regarding `Clc1ccc2c(-n3cc(CCCCN4CCN(c5c6c(nc7ccccc57)CCCC6)CC4)nn3)ccnc2c1`, the pIC50 is 5.00 against Acetylcholinesterase [1] and 4.18 against Cholinesterase [2].

Take `CN(CCCC(=O)N1CCN(c2c3c(nc4ccccc24)CCCC3)CC1)Cc1cn(-c2ccnc3cc(Cl)ccc23)nn1`: the figures for the pIC50 against Acetylcholinesterase [1] and at Cholinesterase [2] were below 4.00 and 4.21, respectively.

Take `Clc1ccc2c(-n3cc(CCCN4CCN(c5c6c(nc7ccccc57)CCCC6)CC4)nn3)ccnc2c1`: the values for the negative logarithm of the IC50 (pIC50) at Acetylcholinesterase [1] and at Cholinesterase [2] were 5.31 and 5.44, respectively.

For `O=C(CCCCc1cn(-c2ccnc3cc(Cl)ccc23)nn1)NCCNc1c2c(nc3cc(Cl)ccc13)CCCC2`, the Selectivity ratio in test [3] came out at 2. The values for the pIC50 at Acetylcholinesterase [1] and against Cholinesterase [2] were below 4.00 and 5.22, respectively.

In turn, `C#CCN(C)Cc1ccc(OC(=O)N(C)C)c2ncccc12` showed a pIC50 against Acetylcholinesterase [4] of 6.30.

For `O=C(CCCCc1cn(-c2ccnc3cc(Cl)ccc23)nn1)N1CCN(c2c3c(nc4ccccc24)CCCC3)CC1`, the pIC50 against Acetylcholinesterase [1] is 4.96; at Cholinesterase [2] it was below 4.00.

For the compound `Clc1ccc2c(-n3cc(CCCCN4CCN(c5c6c(nc7cc(Cl)ccc57)CCCC6)CC4)nn3)ccnc2c1`, the pIC50 is 4.71 against Acetylcholinesterase [1] and below 4.00 on Cholinesterase [2].

In the case of `CCN(CC)c1ccc(/C=C/c2cc(N3CCCCC3)c3ccccc3n2)cc1`, the pIC50 on Acetylcholinesterase [5] is 4.19; at Cholinesterase [6] it was 6.70.

Turning to `C1=CCc2c(nc3ccccc3c2NCCCCCCCCNc2ccnc3ccccc23)C1`, the pIC50 is 6.90 at Butyrylcholinesterase and 8.06 on Acetylcholinesterase [7].

`O=C(CCCCc1cn(-c2ccnc3cc(Cl)ccc23)nn1)N1CCN(c2c3c(nc4cc(Cl)ccc24)CCCC3)CC1`: the figures for the pIC50 on Acetylcholinesterase [1] and on Cholinesterase [2] were 4.73 and below 4.00, respectively.
